According to patent EP2891500B1, “Contrast agent for determination of aldehyde dehydrogenase (ALDH) activity” (Cambridge Enterprise Limited, priority 2014, dated 2015):
“And” between values parts separate entries of the source, which are not always exact repeats. Equal entries are not always repeated.

What was measured:
[1] = Hyperpolarisation by dynamic nuclear polarization and liquid state polarization measurement; type: physicochemical
Procedure: A 2:3 glycerol: [1-^13C] ethanol mixture, containing 15 mM trityl radical (OX063: tris (8-carboxy-2,2,6,6-tetra-(hydroxyethyl)-benzo-[1,2-4,50]-bis-(1,3)-dithiole-4-yl)-methyl, sodium salt; GE Healthcare, Little Chalfont, UK) and 1.5 mM gadoteric acid (DOTAREM; Guebert, Roissy, France), was polarized for approximately 120 minutes in a 3.35 T Hypersense polarizer (Oxford Instruments, Abingdon, Oxfordshire, UK) using irradiation at 94.124 GHz. The dissolution buffer (PBS, pH 7.5, 100 mg/L EDTA) was heated to 180°C and pressurized to 10 bar before dissolving the frozen polarized samples. The dissolved sample contained 110 mM [1-^13C] ethanol. For measurements of the liquid state polarization a sample of [1-^13C] ethanol was polarized and dissolved as described above. Two mL of the sample, containing approximately 60 mM [1-^13C] ethanol were injected into 2 mL of PBS buffer, pH 7.4 in a 10 mm NMR tube placed inside a vertical bore 9.4 T NMR spectrometer with a broadband probe tuned to ^13C (Varian NMR Instruments, Palo Alto, CA, U.S.). Immediately following injection and approximately 9 seconds after dissolution, 180 single transient spectra, with a nominal pulse flip angle of 6° and 8 kHz spectral width, were acquired with a TR of 1 second. Three 90° pulses were then applied to eliminate the remaining hyperpolarisation. A ^13C spectrum (the sum of 128 transients) was then acquired using a 6° pulse, a spectral width of 8 kHz, and a TR of 300 seconds. The temperature of the sample was kept at 37°C. The liquid state polarization was calculated from the ratio of the maximal integrated intensity of the hyperpolarised [1-^13C] ethanol signal to the integrated intensity of the thermal equilibrium signal corrected for the number of transients.

[2] = 13C T1 measurements in vitro (inversion recovery, 11 T); type: physicochemical; details: PBS buffer, pH 7.5, containing 4% BSA, n=2
Procedure: ^13C T1 measurements in vitro: Measurements were made at 11 T (Bruker Avance II^+ 500 MHz spectrometer) using an inversion recovery sequence in samples containing approximately 10 mM [1-^13C] ethanol or 1 M ethanol, 10% D2O and 4% BSA (Sigma Aldrich), buffered with PBS to pH 7.5. A TR of 300 seconds and 16 delays between 1 and 200 seconds were used for measurements with [1-^13C, U-^2H5] ethanol and a TR of 50 seconds and 16 delays between 0.5 and 50 seconds were used for measurements of the natural abundance ^13C signal from 1M ethanol.

[3] = Measurement of blood ethanol level (13C MRS on plasma samples); type: in vivo, mice; details: for ethanol concentration in plasma: plasma withdrawn 75 seconds after start of i.v. injection of 10 µl per g body weight of 110 mM ethanol
Procedure: Measurement of blood ethanol level: An appropriate volume of [2-^13C] ethanol, polarized and dissolved to the same concentration as [1-^13C] ethanol, was injected into the tail vein of animals that had been anesthetized for 30-45 minutes. Blood was withdrawn by cardiac puncture, which began 75 seconds after the start of ethanol injection and was completed within 30 seconds. Individual blood samples were transferred into separate BD Microtainer FE micro-collection tubes (BD, Franklin Lakes, NJ, US), centrifuged at 800 g and the plasma removed and frozen in liquid nitrogen. For NMR spectroscopy, plasma samples were thawed and diluted in 200 mM PBS in D2O, pH 7.5. The buffer contained 100 mM TMSP (2,2,3,3-D4 sodium-3-trimethylsilylpropionate) as an intensity and chemical shift standard (Cambridge Isotope Laboratories, Inc. Andover MA, US). ^13C spectra (the sum of 1024 transients) were acquired under fully relaxed conditions at 125 MHz (Bruker Avance II^+ 500 MHz spectrometer) into 25,294 data points using a 90° pulse, a sweep width of 5 kHz, and a TR of 35 seconds. Integrated intensities of the 2-^13C ethanol and 2-^13C acetate resonances were normalized to that of TMSP and multiplied by the methyl ^13C concentration in 100 mM TMSP (3.33 mM) in order to convert to acetate or ethanol concentrations.

ALDH2 [4] = target: T1, ALDH2 (Mus musculus, UniProt P47738); assay: ALDH2 activity assay in liver extracts of treated animals; type: biochemical, mice; details: 24 hours after 600 mg/kg body weight disulfiram, versus control animals
T1 construct: animals were killed and their livers rapidly excised, freeze-clamped and stored at - 80°C before homogenization and enzyme assay; from tissue; host or cells: Triton X-100 extract of freeze-clamped mouse liver
T1 sequence (P47738 20-519): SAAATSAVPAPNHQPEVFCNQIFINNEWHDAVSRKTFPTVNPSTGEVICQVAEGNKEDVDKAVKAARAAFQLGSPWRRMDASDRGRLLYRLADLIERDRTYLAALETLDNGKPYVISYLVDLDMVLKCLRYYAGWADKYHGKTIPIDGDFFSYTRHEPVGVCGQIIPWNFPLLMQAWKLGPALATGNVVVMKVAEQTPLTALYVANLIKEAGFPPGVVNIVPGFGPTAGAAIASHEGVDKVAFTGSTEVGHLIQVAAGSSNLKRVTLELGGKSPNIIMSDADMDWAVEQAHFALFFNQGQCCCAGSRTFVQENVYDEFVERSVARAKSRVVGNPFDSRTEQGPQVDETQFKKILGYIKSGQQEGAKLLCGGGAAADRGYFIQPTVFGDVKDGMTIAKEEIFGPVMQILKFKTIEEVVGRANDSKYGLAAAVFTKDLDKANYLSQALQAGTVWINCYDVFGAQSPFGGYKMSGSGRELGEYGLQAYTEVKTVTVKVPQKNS
Procedure: Animals were given 100 mg/kg or 600 mg/kg body weight of disulfiram as a suspension in 5% w/v of gum arabicum, by oral gavage (Spielman, D.M., Mayer, D., Yen, Y.F., Tropp, J., Hurd, R.E., Pfefferbaum, A., "In vivo measurement of ethanol metabolism in the rat liver using magnetic resonance spectroscopy of hyperpolarised [1-13C]pyruvate.", Magn.Reson.Med. 2009; 62: 307-313). ^13C MRS experiments were performed approximately 24 hours after drug administration. In some experiments, shortly after completion of MRS measurements, animals were killed and their livers rapidly excised, freeze-clamped and stored at - 80°C before homogenization and enzyme assay.
Liver Tissue Extraction: Freeze-clamped livers were homogenized using a manual Potter S homogenizer (Sartorius, Epsom, UK) in 7 volumes (mL per gram wet weight of liver) of ice-cold extraction buffer (50 mM Tris-HCl, pH 7.4 containing 0.25 M sucrose, 0.1 % v/v 2-mercaptoethanol, 1 mM EDTA and protease inhibitor cocktail (Roche)). Ten strokes of 5 seconds (each followed by a 5 second pause) at 1000 r.p.m. were used. […]
ALDH2 activity assay: The assay mixture containing 0.5 mM NAD^+, 0.1 % v/v of 2-mercaptoethanol, 200 mM KCl in 100 mM sodium pyrophosphate buffer, pH 9.0. […] The formation of NADH was measured for 5 minutes after substrate addition as an increase in absorbance at 340 nm using a Tecan Sunrise 96 well plate reader. […]

ALDH2 [5] = target: T1, ALDH2; assay: In vivo 13C MRS of acetate production from hyperpolarised [1-13C, U-2H5]ethanol in liver after disulfiram treatment; design: species or system mice; details: approximately 24 hours before MRS
Source text: All animal experiments were approved by local ethical review committees and performed in accordance with the Animals (Scientific Procedures) Act of 1986. Female CD1 mice (6-8 weeks old) were used in all experiments. Animals were anaesthetized using 3 % isoflurane vapor (Isoflo, Abbotts Laboratories Ltd, Maidenhead, UK) in an oxygen/air mixture. Anesthesia was maintained during the MR experiments with 1-2 % isoflurane vapor in an oxygen/air mixture delivered via a face mask.
In vivo NMR spectroscopy: A catheter was inserted in a tail vein and the mouse placed in a heated cradle. Throughout the experiment animal breathing rate and core body temperature were monitored using a Biotrig physiological monitor (Small Animal Instruments, Stony Brook, NY), which were within the range of 60-100 bpm and 36-37°C, respectively. A 20 mm diameter surface coil (Rapid Biomedical GmbH, Rimpar, Germany) was placed over the liver and the entire assembly placed in a ^13C/^1H volume coil (Rapid Biomedicals, Germany), in a 7T horizontal bore magnet (Varian, Palo Alto, CA). Livers were localized in transverse ^1H images, acquired using a spin-echo pulse sequence (TR, 1.5 s; echo time (TE), 10 ms; field of view, 40 mm x 40 mm; data matrix, 128 x 128; slice thickness, 2 mm; 15 slices). […] All data were phase and baseline corrected and the signal integrals for ethanol and acetate measured. […]

[2H]C([2H])([2H])[13C]([2H])([2H])O [[1-^13C, U-^2H5]ethanol]
polarization buildup time constant of dynamic nuclear polarization ([1]; 3.35 T Hypersense polarizer, n=3): 41.2 ± 5.5 min | T1 calculated from the decay of the polarization ([1]; hyperpolarised sample in PBS, 9.4 T, 37°C, SD, n=3): 53.7 ± 3.2 s | liquid state polarization ([1]; measured approximately 9 seconds after dissolution): 14.1 ± 3.3% | ^13C T1 [2]: 56 s

[13CH3]CO [[2-^13C] ethanol]
[1-^13C] acetate concentration in plasma ([3]; plasma withdrawn 75 seconds after start of ethanol injection, SD, n=3): 0.93 ± 0.29 mM | ethanol concentration in plasma ([3]; SD, n=3): 1.73 ± 0.48 mM

CCN(CC)C(=S)SSC(=S)N(CC)CC [disulfiram]
decrease of ALDH2 activity in liver extracts (ALDH2 [4]): 68% | decrease of the maximum acetate signal (normalized to the maximum ethanol signal) (ALDH2 [5]; disulfiram 100 mg/kg by oral gavage, n=1): approximately 43% | decrease of the maximum acetate signal (normalized to the maximum ethanol signal) (ALDH2 [5]; disulfiram 600 mg/kg body weight by oral gavage, SD, n=3): 79 ± 8% and ~79%

CCO [ethanol]
expected ethanol concentration at equilibrium ([3]; calculated for 10 µl per g body weight of 110 mM ethanol, assuming water is approximately 74% of body weight): approximately 1.5 mM | ethanol concentration in plasma ([3]; SD, n=3): 1.73 mM | ^13C T1 [2]: 9.9 s
